Experimental data published in ChEMBL document CHEMBL2331553, “Discovery of N-[[1-[2-(tert-butylcarbamoylamino)ethyl]-4-(hydroxymethyl)-4-piperidyl]methyl]-3,5-dichloro-benzamide as a selective T-type calcium channel (Cav3.2) inhibitor” (Bioorg Med Chem Lett, 2013).
Converted amounts (≈) assume the structure as drawn.

What was measured:
[1] = target: T1, Voltage-dependent T-type calcium channel subunit alpha-1H (Homo sapiens, UniProt O95180); experiment: Inhibition of human T-type calcium channel Cav3.2 expressed in T-Rex293 cells by whole cell patch clamp assay; format: cell-based, HEK293
T1 sequence (O95180 whole entry, the tested form may be a part): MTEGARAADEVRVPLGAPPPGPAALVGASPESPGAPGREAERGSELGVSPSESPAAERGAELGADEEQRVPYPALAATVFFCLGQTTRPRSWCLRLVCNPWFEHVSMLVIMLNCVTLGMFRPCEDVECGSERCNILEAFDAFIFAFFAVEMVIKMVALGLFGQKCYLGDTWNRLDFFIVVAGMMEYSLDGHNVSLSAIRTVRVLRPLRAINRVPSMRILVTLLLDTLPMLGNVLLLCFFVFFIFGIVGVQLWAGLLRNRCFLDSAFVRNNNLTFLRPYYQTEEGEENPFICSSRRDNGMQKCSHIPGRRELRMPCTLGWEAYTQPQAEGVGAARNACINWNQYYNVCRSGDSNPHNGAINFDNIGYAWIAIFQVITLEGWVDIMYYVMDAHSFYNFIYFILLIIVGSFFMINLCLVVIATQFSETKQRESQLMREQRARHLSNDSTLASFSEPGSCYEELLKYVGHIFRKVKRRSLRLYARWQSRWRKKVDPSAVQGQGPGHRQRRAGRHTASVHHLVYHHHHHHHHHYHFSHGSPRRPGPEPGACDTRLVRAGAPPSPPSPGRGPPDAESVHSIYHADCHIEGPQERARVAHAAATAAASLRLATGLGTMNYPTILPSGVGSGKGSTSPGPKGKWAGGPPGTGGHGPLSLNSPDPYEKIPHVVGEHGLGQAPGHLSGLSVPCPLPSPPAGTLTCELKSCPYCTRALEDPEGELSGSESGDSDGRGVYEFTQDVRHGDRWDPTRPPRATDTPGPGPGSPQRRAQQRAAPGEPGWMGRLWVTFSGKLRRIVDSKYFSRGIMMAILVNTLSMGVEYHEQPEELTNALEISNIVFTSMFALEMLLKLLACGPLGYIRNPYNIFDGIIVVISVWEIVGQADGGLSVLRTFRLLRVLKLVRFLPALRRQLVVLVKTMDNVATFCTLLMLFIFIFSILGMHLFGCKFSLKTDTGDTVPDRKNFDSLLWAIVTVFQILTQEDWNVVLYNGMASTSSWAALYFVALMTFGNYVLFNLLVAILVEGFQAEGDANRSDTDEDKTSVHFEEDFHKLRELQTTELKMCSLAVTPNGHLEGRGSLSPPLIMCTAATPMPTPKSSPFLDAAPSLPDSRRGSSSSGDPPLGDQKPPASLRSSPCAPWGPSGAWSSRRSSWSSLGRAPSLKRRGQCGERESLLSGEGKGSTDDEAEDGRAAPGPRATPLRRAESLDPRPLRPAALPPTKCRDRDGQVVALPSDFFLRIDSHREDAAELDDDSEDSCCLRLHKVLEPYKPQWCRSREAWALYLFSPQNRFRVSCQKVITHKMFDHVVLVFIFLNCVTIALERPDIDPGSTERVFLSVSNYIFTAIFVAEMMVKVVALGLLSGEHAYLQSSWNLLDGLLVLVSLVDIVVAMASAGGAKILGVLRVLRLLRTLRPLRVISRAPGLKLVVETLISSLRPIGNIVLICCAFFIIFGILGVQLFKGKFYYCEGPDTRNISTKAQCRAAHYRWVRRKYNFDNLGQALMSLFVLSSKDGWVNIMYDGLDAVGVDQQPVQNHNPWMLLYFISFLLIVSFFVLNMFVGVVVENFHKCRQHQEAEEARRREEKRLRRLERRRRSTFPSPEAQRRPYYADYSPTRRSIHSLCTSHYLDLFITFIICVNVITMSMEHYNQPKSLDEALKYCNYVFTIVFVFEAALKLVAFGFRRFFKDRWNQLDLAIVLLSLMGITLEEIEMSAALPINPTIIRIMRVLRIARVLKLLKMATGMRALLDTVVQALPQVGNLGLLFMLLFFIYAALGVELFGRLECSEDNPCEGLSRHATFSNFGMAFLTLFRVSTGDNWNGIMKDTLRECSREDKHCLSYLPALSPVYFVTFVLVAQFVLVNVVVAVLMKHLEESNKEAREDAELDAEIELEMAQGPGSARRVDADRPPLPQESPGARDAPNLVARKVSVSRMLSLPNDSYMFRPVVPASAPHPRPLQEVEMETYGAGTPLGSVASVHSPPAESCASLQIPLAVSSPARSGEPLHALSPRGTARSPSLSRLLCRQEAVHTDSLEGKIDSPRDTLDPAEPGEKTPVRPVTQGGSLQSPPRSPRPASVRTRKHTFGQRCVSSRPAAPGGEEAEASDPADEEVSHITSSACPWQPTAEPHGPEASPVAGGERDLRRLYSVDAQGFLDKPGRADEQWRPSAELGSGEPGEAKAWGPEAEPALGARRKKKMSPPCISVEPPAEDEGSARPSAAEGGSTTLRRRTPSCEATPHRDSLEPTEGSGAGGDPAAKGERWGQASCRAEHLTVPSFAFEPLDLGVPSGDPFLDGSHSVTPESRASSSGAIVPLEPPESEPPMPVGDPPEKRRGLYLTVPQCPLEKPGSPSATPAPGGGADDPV

[2] = Ratio of unbound concentration in brain to unbound concentration in plasma in Sprague-Dawley rat at 2 umol/kg/hr, iv administered as infusion measured after 4 hrs; format: ADME, organism-based; settings: brain and plasma (unbound concentrations), read-out: K(p,uu,brain)
Liver microsomes = experiment: Drug metabolism in human liver microsomes assessed as glutathione-adduct reactive metabolite formation at 1 mg/ml after 30 mins; format: ADME, Microsome; settings: 0.5 h
Cytochrome P450 2D6 = Cytochrome P450 2D6 (Homo sapiens, UniProt P10635); experiment: Inhibition of human recombinant CYP2D6-mediated 7-methoxy-4(aminomethyl)-coumarine degradation; format: ADME
Chain of Cytochrome P450 2D6 (P10635 whole entry): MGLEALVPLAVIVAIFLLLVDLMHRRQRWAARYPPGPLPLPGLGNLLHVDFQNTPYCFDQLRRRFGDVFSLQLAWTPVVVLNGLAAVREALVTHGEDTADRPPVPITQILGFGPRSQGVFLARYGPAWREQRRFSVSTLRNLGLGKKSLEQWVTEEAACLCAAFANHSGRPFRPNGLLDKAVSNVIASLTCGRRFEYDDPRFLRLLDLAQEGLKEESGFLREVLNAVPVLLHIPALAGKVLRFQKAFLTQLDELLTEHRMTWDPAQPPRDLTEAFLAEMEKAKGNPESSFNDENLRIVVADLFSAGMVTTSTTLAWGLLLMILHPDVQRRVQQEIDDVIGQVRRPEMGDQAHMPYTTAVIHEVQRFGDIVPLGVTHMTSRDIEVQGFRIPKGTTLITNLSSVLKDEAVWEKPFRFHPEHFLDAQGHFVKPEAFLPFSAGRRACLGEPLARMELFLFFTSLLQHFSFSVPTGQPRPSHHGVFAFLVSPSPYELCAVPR

[3] = Intrinsic clearance in human liver microsomes at 1 mg/ml after 45 mins; format: ADME, Microsome; settings: read-out: CLH
[4] = target: Voltage-gated inwardly rectifying potassium channel KCNH2 (Homo sapiens, UniProt Q12809); experiment: Inhibition of human ERG expressed in CHO cells by IONWORKS assay; format: cell-based
Chain of Voltage-gated inwardly rectifying potassium channel KCNH2 (Q12809 whole entry, the tested form may be a part): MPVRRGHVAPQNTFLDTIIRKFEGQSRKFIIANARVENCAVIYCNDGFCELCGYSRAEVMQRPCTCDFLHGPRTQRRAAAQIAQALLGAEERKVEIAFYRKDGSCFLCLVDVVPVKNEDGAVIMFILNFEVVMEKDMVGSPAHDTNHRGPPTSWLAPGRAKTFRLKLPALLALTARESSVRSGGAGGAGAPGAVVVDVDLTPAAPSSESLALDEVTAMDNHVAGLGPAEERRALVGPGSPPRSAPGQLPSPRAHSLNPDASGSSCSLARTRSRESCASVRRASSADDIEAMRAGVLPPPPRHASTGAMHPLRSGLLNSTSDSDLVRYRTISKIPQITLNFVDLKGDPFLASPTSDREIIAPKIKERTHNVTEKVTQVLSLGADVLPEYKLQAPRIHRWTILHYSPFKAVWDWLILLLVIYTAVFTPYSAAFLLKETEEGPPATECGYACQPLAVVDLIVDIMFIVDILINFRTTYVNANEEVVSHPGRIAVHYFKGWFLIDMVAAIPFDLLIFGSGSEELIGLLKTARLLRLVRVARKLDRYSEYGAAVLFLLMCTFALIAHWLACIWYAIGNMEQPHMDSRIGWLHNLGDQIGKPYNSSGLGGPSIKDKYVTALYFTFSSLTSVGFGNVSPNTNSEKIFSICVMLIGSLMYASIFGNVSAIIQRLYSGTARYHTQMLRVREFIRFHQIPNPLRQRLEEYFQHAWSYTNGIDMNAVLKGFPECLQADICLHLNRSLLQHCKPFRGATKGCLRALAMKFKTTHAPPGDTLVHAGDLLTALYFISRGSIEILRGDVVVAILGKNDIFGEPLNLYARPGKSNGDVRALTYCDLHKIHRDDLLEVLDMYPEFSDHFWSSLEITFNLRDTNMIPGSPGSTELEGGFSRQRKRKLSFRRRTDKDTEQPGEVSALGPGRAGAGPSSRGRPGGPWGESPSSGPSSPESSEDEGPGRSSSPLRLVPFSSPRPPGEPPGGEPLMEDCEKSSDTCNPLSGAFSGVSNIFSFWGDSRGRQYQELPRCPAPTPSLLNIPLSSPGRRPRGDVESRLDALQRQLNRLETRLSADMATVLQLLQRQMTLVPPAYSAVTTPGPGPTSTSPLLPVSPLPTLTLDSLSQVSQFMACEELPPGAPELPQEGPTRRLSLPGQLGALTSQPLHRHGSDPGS

Canis familiaris = experiment: Cardioprotective activity in iv dosed beagle dog atrial fibrillation model assessed as reduction in heart rate administered as infusion for over 20 mins followed by 60-mins washout period by ECG analysis relative to control; format: functional, organism-based; settings: Canis lupus familiaris
[5] = Oral bioavailability in beagle dog at 3 mg/kg; format: ADME, organism-based, Canis lupus familiaris; settings: in vivo
[6] = Clearance in beagle dog at 1 mg/kg, iv; format: ADME, organism-based, Canis lupus familiaris; set-up: dose 1 mg/kg, route intravenous; settings: in vivo
[7] = Solubility of the compound at pH 7.4; format: physicochemical; settings: buffer
[8] = target: T2, A-type voltage-gated potassium channel KCND3 (Homo sapiens, UniProt Q9UK17); experiment: Inhibition of human Kv4.3 channel expressed in CHO cells by IONWORKS patch clamp assay; format: cell-based
T2 sequence (Q9UK17 whole entry): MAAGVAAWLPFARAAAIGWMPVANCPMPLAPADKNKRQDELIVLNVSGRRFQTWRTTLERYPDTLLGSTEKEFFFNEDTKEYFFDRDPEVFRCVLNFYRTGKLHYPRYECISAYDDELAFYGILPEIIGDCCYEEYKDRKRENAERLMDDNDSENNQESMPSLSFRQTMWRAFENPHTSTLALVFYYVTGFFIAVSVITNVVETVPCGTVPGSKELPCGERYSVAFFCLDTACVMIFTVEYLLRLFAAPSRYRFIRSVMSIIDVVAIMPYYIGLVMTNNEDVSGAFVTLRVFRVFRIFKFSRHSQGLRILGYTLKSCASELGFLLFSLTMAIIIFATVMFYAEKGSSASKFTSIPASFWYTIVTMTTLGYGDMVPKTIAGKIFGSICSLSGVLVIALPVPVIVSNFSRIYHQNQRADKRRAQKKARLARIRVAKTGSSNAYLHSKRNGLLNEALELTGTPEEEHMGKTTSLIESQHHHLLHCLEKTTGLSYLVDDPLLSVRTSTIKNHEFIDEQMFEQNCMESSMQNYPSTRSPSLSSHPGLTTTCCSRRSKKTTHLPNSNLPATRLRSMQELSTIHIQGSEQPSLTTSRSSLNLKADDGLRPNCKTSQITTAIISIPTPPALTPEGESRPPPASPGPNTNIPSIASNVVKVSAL

[9] = target: Voltage-gated potassium channel, IKs; KCNQ1(Kv7.1)/KCNE1(MinK) (Homo sapiens, UniProt P15382+P51787); experiment: Inhibition of human IKs channel expressed in CHO cells by IONWORKS patch clamp assay; format: cell-based
Chain of Voltage-gated potassium channel, IKs; KCNQ1(Kv7.1)/KCNE1(MinK) (P51787 whole entry): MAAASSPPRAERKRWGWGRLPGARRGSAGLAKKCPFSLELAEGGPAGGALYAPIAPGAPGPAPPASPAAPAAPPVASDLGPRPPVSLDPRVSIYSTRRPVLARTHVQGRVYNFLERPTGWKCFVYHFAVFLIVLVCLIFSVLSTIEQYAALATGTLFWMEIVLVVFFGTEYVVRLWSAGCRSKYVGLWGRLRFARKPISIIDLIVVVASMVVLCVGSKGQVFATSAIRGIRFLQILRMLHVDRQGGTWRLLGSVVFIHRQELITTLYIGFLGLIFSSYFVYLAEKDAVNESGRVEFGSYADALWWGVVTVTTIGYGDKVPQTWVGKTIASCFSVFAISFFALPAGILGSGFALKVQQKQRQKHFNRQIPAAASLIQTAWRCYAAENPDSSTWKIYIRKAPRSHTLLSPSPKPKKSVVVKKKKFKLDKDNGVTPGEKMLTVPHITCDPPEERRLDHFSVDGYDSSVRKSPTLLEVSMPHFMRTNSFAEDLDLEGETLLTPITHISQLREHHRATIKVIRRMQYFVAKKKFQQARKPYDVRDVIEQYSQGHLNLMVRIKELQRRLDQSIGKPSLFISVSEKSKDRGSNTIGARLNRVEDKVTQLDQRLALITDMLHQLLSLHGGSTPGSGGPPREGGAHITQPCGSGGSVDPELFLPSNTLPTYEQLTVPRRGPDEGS

[10] = target: T3, Potassium/sodium hyperpolarization-activated cyclic nucleotide-gated channel 4 (Homo sapiens, UniProt Q9Y3Q4); experiment: Inhibition of human HCN4 channel expressed in CHO cells by IONWORKS patch clamp assay; format: cell-based
T3 sequence (Q9Y3Q4 whole entry): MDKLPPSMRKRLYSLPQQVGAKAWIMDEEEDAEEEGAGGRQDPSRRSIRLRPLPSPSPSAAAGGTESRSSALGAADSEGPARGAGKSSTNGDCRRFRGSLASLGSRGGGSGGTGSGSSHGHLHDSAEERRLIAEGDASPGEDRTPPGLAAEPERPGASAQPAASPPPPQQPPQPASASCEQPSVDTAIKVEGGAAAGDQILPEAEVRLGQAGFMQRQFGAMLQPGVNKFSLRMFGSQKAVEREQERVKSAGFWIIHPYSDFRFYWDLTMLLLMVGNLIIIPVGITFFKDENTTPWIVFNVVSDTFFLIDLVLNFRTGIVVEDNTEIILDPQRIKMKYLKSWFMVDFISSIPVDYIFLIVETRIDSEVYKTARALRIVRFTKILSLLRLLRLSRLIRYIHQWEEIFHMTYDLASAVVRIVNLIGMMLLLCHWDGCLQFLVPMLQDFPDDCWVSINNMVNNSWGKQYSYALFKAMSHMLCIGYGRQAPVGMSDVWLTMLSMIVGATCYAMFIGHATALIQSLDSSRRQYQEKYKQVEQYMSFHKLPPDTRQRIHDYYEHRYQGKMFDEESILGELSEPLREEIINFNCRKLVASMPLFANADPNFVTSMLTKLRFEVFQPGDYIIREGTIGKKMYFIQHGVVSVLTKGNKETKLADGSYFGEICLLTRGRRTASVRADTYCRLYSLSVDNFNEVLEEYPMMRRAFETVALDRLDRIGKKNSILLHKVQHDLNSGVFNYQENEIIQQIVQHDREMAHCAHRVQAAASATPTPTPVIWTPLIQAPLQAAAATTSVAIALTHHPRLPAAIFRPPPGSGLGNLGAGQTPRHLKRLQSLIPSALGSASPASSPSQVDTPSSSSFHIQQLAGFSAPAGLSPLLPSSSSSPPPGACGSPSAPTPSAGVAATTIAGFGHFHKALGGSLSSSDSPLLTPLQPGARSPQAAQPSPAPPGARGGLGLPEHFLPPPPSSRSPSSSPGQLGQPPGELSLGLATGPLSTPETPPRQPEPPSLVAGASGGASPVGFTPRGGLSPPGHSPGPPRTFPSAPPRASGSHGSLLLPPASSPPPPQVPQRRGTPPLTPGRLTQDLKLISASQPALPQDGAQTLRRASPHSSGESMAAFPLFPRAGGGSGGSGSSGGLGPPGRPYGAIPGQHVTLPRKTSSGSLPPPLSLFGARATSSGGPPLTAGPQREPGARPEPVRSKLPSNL

[11] = target: Sodium channel protein type 5 subunit alpha (Homo sapiens, UniProt Q14524); experiment: Inhibition of human Nav1.5 channel expressed in CHO cells by IONWORKS patch clamp assay; format: cell-based
[12] = target: Voltage-dependent L-type calcium channel subunit alpha-1C (Homo sapiens, UniProt Q13936); experiment: Inhibition of calcium channel Cav1.2 (unknown origin) expressed in CHO cells by IONWORKS patch clamp assay; format: cell-based
[13] = target: T1, Voltage-dependent T-type calcium channel subunit alpha-1H; experiment: Inhibition of T-type calcium channel Cav3.2 (unknown origin) by IONWORKS assay

| Structure (SMILES) | IC50 [1] | Drug metabolism (Liver microsomes) | IC50 (Cytochrome P450 2D6) | microsomal CLint [3] | IC50 [4] | further results |
| --- | --- | --- | --- | --- | --- | --- |
| CC(C)(C)NC(=O)NCCCN1CCN(CC(=O)NC23CC4CC(CC(C4)C2)C3)CC1 | 1200 nM | – | – | – | – | – |
| CC(C)(C)S(=O)(=O)CCCN1CCN(CC(=O)NC23CC4CC(CC(C4)C2)C3)CC1 | 2400 nM | – | – | – | – | Kp uu at 4 h [2]: 0.3 |
| CC(C)(C)NC(=O)NCCN1CC(NC(=O)c2cc(Cl)cc(Cl)c2)C1 | 800 nM | Active | 4500 nM | 4 µL/min/mg | – | – |
| CC(C)(C)NCCN1CCN(CC(=O)NC23CC4CC(CC(C4)C2)C3)CC1 | 4900 nM | – | – | – | – | – |
| O=C(CN1CCN(CCC2CCOCC2)CC1)NC12CC3CC(CC(C3)C1)C2 | – | – | – | – | – | Kp uu at 4 h [2]: 1.2 |
| CC(C)(C)C(=O)NCCCN1CCN(CC(=O)NC23CC4CC(CC(C4)C2)C3)CC1 | 1300 nM | – | – | – | – | – |
| CC(C)(C)NC(=O)NCCN1CCC(NC(=O)c2cc(Cl)cc(Cl)c2)C1 (configuration not stated) | 800 nM | Active | 2600 nM | 15 µL/min/mg | 6600 nM | – |
| CC(C)(C)CS(=O)(=O)NCCN1CCN(CC(=O)NC23CC4CC(CC(C4)C2)C3)CC1 | 900 nM | – | – | – | – | Kp uu at 4 h [2]: 0.3 |
| CC(C)(C)NC(=O)NCCN1CCC(O)(CNC(=O)c2cc(Cl)cc(Cl)c2)CC1 | 600 nM | Active | 14000 nM | 6 µL/min/mg | > 33000 nM | – |
| COCC(=O)O[C@]1(CCN(C)CCCc2nc3ccccc3[nH]2)CCc2cc(F)ccc2[C@@H]1C(C)C [MIBEFRADIL] | – | Active | 63 nM | 56.5 µL/min/mg | – | – |
| CC(C)(C)C(=O)NCCN1CCN(CC(=O)NC23CC4CC(CC(C4)C2)C3)CC1 | 3000 nM | – | – | – | – | – |
| CC(C)(C)NC(=O)NCCN1CCOC(CNC(=O)c2cc(Cl)cc(Cl)c2)C1 (configuration not stated) | 3300 nM | Active | > 20000 nM | 47 µL/min/mg | > 33000 nM | – |
| CC(C)(C)NC(=O)CN1CCN(CC(=O)NC23CC4CC(CC(C4)C2)C3)CC1 | 1000 nM | – | – | – | – | Kp uu at 4 h [2]: 0.4 |
| CC(C)(C)OC(=O)NCCN1CCN(CC(=O)NC23CC4CC(CC(C4)C2)C3)CC1 | 1200 nM | – | – | – | – | – |

Continued, in another order:

| IC50 [1] | Drug metabolism (Liver microsomes) | IC50 (Cytochrome P450 2D6) | microsomal CLint [3] | Structure (SMILES) | IC50 [4] | further results |
| --- | --- | --- | --- | --- | --- | --- |
| 400 nM | Active | 1000 nM | < 5 µL/min/mg | CC(C)(C)NC(=O)NCCN1CCC(CNC(=O)c2cc(Cl)cc(Cl)c2)C1 (configuration not stated) | 5800 nM | – |
| 600 nM | Not Active | 13000 nM | 7 µL/min/mg | CC(C)(C)NC(=O)NCCN1CCC(CO)(CNC(=O)c2cc(Cl)cc(Cl)c2)CC1 | > 33000 nM | Activity (Canis familiaris): Dose-dependent effect; bioavailability [5]: 22%; clearance [6]: 17 mL/min/kg; solubility [7]: 460 µM (≈ 211 µg/mL); IC50 [8]: > 33000 nM; IC50 [9]: > 33000 nM; IC50 [10]: > 33000 nM; IC50 [11]: > 33000 nM; IC50 [12]: > 31600 nM; IC50 [13]: 1200 nM |
| 500 nM | – | > 20000 nM | 100 µL/min/mg | CC(C)(C)NC(=O)NCCN1CCN(CC(=O)NC23CC4CC(CC(C4)C2)C3)CC1 | > 33000 nM | Kp uu at 4 h [2]: 0.02 |
| 500 nM | Active | 8300 nM | 48 µL/min/mg | CC(C)(C)NC(=O)NCCN1CCCC(NC(=O)c2cc(Cl)cc(Cl)c2)C1 (configuration not stated) | 4100 nM | – |
| 500 nM | Not Active | 3400 nM | < 5 µL/min/mg | CC(C)(C)NC(=O)NCCN1CCC(CNC(=O)c2cc(Cl)cc(Cl)c2)CC1 | 13000 nM | – |
| 500 nM | Not Active | 1600 nM | 16 µL/min/mg | CC(C)(C)NC(=O)NCCN1CCCC(CNC(=O)c2cc(Cl)cc(Cl)c2)C1 (configuration not stated) | – | – |
| 300 nM | – | 8000 nM | 29 µL/min/mg | CC(C)(C)NC(=O)NCCN1CCN(CC(=O)Nc2cc(Cl)cc(Cl)c2)CC1 | 1600 nM | – |
